Test results reported in patent US11071747B2, “Use of NAD precursors for breast enhancement” (UNIVERSITY OF IOWA RESEARCH FOUNDATION, priority 2016, dated 2021).
“Also recorded” adds a separate entry of the source.

Experiments:
[1] = system: mammary glands of lactating mice; assay: NR-supplemented diet in lactating female mice, mammary gland mass and Carmine/Alum staining; type: in vivo, C57BL/6N mice
Description: FIGS. 1A-B. NR increases the mass of mammary glands of lactating mice. C57BL/6 female mice were fed normal chow (NC) diet and mated to a C57BL/6 male. After gestation and birth, females remained on NC or were on or a diet supplemented with 3 g/kg nicotinamide riboside chloride (NR). At day 14, the females were sacrificed and mammary glands 1-5 were removed for analysis. FIG. 1A. […] FIG. 1B. Mammary glands 4 and 5 isolated from lactating females were stained with Carmine/Alum staining.
The data are based on a trial with female C57BL/6N mice raised in 12 hour light:dark cycles on Teklad 2920X chow (NC). It was asked whether addition of NR chloride (3 g/kg of chow) to the diet of female mice would augment mammary tissue. Accordingly, for 12 weeks prior to mating with a single C57BL/6N male, females were on either NC (n=4) or NC+NR (n=4). Females were maintained on the same diet for 14 days post-partum.

[2] = system: mammary glands of virgin female mice; assay: NR oral supplementation in virgin female mice, mammary gland development; type: in vivo
Description: FIGS. 2A-E. NR oral supplementation promotes mammary gland development in virgin female mice (non-lactating females). FIG. 2A. […] FIG. 2B. Carmine/Alum staining of mammary glands. FIG. 2C. Quantification of mammary gland ductal length can be assessed by taking the measurement of the left (L1), right (L2), top (L3) and bottom (L4) branchings expressed in cm. FIG. 2D. […] FIG. 2E.

[3] = system: mammary gland #4-5 and brown adipose tissue of female rats; assay: NR diet in virgin female rats, mammary gland and brown adipose tissue weight; type: in vivo; details: NR diet vs normal chow
Method: FIGS. 3A-C. […] Adipose tissues of female rats on normal chow diet (NC) or normal chow with nicotinamide riboside (NR). FIG. 3A. Mammary gland #4-5 were isolated and the weight was recorded. […] FIG. 3B. Images of dissected mammary gland #4-5. FIG. 3C. Weight of brown adipose tissue (BAT). To determine if the effect of NR on females was a mouse-specific phenomenon, additional experiments were performed. Specifically, virgin female rats were fed either NC or NR diets prior to dissection.

mammary glands #4 and 5 = assay: NR diet for six weeks in eight month-old female and male mice, mammary gland weight; type: in vivo; details: NR diet six weeks vs NC
Method: FIG. 4. NR increases mammary gland tissue weight of female but not male mice. Eight month-old mice were put on NC or NR diet for six weeks. Mammary glands #4 and 5 were measured and plotted by normalizing to the body weight of each mouse. […] In FIG. 4, eight month-old mice were put on normal chow (NC) or NC+NR (NR) diets for six weeks. Mammary glands #4 and 5 were measured and plotted by normalizing to the body weight of each mouse.

[4] = system: mammary glands #4-5 of female mice; assay: Xylene extraction of fat from stained mammary glands of NR-fed female mice; type: in vivo; details: eight month-old female mice, NR diet six weeks
Description: FIGS. 5A-B. NR-supplemented mammary tissue is partially resistant to xylene extraction. FIG. 5A. […] Eight month-old female mice were on NC or NR diet for six weeks. Mammary glands #4-5 were isolated, fixed, stained with Carmine/Alum stain and xylene was use to extract fat. […] FIG. 5B. NR-fed rats have mammary gland with a different fat composition. […] Eight month-old female mice were on NC or NR diet for six weeks. Mammary glands #4-5 were isolated, fixed, stained with Carmine/Alum stain and subjected to an extraction with xylene to remove fat.

mammary gland of rats = assay: Xylene clearing of mammary adipose tissue of NR-fed rats; type: in vivo
Description: FIGS. 5A-B. NR-supplemented mammary tissue is partially resistant to xylene extraction. FIG. 5A. […] Eight month-old female mice were on NC or NR diet for six weeks. Mammary glands #4-5 were isolated, fixed, stained with Carmine/Alum stain and xylene was use to extract fat. […] FIG. 5B. NR-fed rats have mammary gland with a different fat composition.

[5] = system: mammary glands of female rodents; assay: NR-supplemented diet in adult female rodents, overall findings; type: in vivo, mice and rats
Method: As described herein, a series of experiments were performed to examine the effect of nicotinamide riboside (NR) on mammary tissue. It was determined that the provision of NR in the diet of female mice and female rats promoted mammary development (e.g., increases mammary gland tissue weight). […] These experiments show the unanticipated and potentially value effect of supplementing females with NR or other NAD precursors.

## NC(=O)c1ccc[n+]([C@@H]2O[C@H](CO)[C@@H](O)[C@H]2O)c1 [NR, nicotinamide riboside]
[1]; lactating C57BL/6 females, diet with 3 g/kg NR chloride vs normal chow, day 14 post-partum, mammary glands 1-5
  mass of mammary glands: more mammary tissue than those on normal chow; also recorded: more massive mammary glands
[1]; lactating females, mammary glands 4 and 5, NR diet vs normal chow
  lactating mammary tissue (Carmine/Alum staining): more lactating mammary tissue
[2]; twelve week-old virgin female mice, NR supplementation for two weeks
  mammary gland with beige fat: more mammary gland with beige fat
[2]; virgin female mice, NR oral supplementation
  surface area of mammary gland #4-5: increases the surface area of mammary gland #4-5
[2]; virgin female mice, NR oral supplementation, L1-L4 branchings
  mammary gland ductal length measurements: increases ductal length measurements
[2]; virgin mice, not exposed to males
  subcutaneous adipose tissue and epithelial duct branching: significant increase of the subcutaneous adipose tissue and epithelial duct branching
[3]; female rats
  weight of brown adipose tissue (BAT): increases the mass of mammary gland #4 and #5 and brown adipose tissue (BAT)
[3]; virgin female rats
  weight of mammary gland #4-5: increased the size of mammary tissues in rats; also recorded: more mammary gland tissue
Mammary glands #4 and 5; eight month-old female mice
  mammary gland #4 and 5 weight normalized to body weight: more mammary gland tissue in comparison to the NC group
Mammary glands #4 and 5; eight month-old male mice
  mammary gland #4 and 5 weight normalized to body weight: no significant increase in mammary tissue weight
[4]
  fat composition of the mammary gland: changes the fat composition of the mammary gland
[4]; 1 week of incubation in xylene
  fat remaining in mammary glands after xylene extraction: more fat remaining
Mammary gland of rats
  clearing of mammary adipose tissue by xylene: poorly cleared by xylene
[5]; NR supplementation, female rodents
  development of beige or brown fat: leads to development of beige or brown fat
[5]; adult females, virginal or pregnant, diet supplemented with NR
  fat pad formation, epithelial branching, alveolar and lobule development of mammary glands: increase in fat pad formation, epithelial branching, alveolar and lobule development
